One compound from publication PMC6189370, “Olmutinib (BI1482694/HM61713), a Novel Epidermal Growth Factor Receptor Tyrosine Kinase Inhibitor, Reverses ABCG2-Mediated Multidrug Resistance in Cancer Cells” (Frontiers in Pharmacology, 2018) can be followed below.

For this assay, the target named is T1, ABCG2 (Homo sapiens, UniProt Q9UNQ0).
T1 construct: membrane vesicles of High Five insect cells
T1 sequence (Q9UNQ0 1-655): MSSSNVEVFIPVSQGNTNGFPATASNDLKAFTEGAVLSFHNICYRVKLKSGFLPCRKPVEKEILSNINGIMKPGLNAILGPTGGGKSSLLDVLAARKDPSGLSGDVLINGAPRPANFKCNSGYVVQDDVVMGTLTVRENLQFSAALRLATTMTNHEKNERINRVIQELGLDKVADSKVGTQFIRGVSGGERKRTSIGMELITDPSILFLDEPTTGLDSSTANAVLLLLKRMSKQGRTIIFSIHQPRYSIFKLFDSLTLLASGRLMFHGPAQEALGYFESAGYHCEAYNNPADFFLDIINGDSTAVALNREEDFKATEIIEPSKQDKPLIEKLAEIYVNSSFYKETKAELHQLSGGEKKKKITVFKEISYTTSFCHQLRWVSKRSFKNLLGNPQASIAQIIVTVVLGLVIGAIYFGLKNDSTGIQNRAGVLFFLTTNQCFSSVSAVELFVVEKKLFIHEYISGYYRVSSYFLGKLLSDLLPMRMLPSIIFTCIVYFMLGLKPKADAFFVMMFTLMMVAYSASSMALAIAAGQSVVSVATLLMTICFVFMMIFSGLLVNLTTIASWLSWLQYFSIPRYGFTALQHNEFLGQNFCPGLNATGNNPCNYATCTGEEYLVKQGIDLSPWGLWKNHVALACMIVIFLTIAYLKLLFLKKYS
The assay can be described thus: biochemical.

Consider `C=CC(=O)Nc1cccc(Oc2nc(Nc3ccc(N4CCN(C)CC4)cc3)nc3ccsc23)c1` [olmutinib], for which the EC50 (as a rule, the concentration that produces a half-maximal response) is 2.2 µM.
